The values that follow come from patent US9738642B2, “Triazolopyridine ether derivatives and their use in neurological and pyschiatric disorders” (BRISTOL-MYERS SQUIBB COMPANY, priority 2013, dated 2017).

SMILES strings stand for the structures. Structures can show the parent of a compound that is named as a salt.

The target of this test is T1, human mGluR2 (Homo sapiens, UniProt Q14416).
T1 construct: expressed in transfected cells; host or cells: HEK293 clonal line
In words: mGluR2 cAMP assay. The class given is cell-based. Conditions: clonally expressed human mGluR2 in HEK293; 1 μM forskolin, 1 μM LY-341495, 30 min; CISBIO cAMP kit; read-out: EC50 (nM), activity in mGluR2 cAMP assay. The method, then: On the day of the assay, media was removed, cells washed with PBS, cells harvested and pelleted by centrifugation. Cell pellets were resuspended in stimulation buffer without forskolin and counted. […] A standard curve was created using a top concentration of cAMP of 1 μM in the stimulation buffer, 1:3 dilutions over 14 points in the absence of cells. […] In house software converted the fluorescence value ratios to units of cAMP concentration, which is then used to calculate % inhibition for each test compound. MGluR2 cAMP Assay Materials and Methods. […] Buffer without forskolin was used as a negative control. Solutions of D2 and cryptate detection reagents from the CISBIO dynamic cAMP kit (62AM4PEJ) were diluted 1:40 in lysis buffer. Lysis buffer consisted of 50 mM Phosphate Buffer pH 7.0, 800 mM Potassium Fluoride, 0.2% BSA, and 1.0% Triton. Assay reaction was terminated by addition of detection reagents in lysis buffer. One hour later, plates were read on a PE Viewlux. Data was extracted, and concentration response curves generated by fitting the data to a standard 4 parameter logistic equation from which EC50 values were determined.
(Changes in cAMP serve as a functional read-out for many G protein-coupled receptors.)

T1 sequence (Q14416 19-872): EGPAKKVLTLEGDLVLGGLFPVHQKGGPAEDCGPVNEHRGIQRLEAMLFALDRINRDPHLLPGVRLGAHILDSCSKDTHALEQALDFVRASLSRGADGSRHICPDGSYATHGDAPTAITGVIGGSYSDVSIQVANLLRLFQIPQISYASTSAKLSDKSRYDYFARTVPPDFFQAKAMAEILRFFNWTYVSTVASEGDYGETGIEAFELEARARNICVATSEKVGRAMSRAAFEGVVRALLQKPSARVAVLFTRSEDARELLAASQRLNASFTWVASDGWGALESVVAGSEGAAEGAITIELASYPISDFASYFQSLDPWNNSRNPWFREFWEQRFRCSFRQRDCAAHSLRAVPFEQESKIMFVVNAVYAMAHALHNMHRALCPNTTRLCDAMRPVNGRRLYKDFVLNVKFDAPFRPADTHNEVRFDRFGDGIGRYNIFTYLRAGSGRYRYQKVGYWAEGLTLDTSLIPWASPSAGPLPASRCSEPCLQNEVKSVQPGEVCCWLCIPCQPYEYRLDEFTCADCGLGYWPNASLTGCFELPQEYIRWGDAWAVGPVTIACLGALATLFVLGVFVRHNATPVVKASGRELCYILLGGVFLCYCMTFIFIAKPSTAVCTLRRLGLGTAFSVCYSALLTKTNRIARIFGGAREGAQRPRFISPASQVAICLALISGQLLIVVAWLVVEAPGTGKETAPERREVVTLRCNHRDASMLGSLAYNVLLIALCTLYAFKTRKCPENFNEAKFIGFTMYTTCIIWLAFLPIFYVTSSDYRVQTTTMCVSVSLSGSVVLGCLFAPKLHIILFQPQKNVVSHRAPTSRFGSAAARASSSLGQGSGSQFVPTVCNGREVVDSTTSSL

The term EC50 denotes the concentration that produces a half-maximal response. In the case of `Fc1ccc([C@H]2C[C@@H]2COc2ccn3c(CC(F)(F)F)nnc3c2C(F)(F)F)cc1` [Example 52, 7-(((1S,2S)-2-(4-Fluorophenyl)cyclopropyl)methoxy)-3-(2,2,2-trifluoroethyl)-8-(trifluoromethyl)-[1,2,4]triazolo[4,3-a]pyridine], the EC50 was determined as 1.6 nM.
`COc1ccccc1[C@]1(C#N)C[C@@H](Oc2ccn3c(CC4CC4)nnc3c2C(F)(F)F)C1` [Example 53, (1s,3s)-3-(3-(Cyclopropylmethyl)-8-(trifluoromethyl)-[1,2,4]triazolo[4,3-a]pyridin-7-yloxy)-1-(2-methoxyphenyl)cyclobutanecarbonitrile]: the EC50 came to 0.3 nM.
For `N#C[C@]1(c2cc(F)cc(F)c2)C[C@H](Oc2ccn3c(CC4CC4)nnc3c2C(F)(F)F)C1` [Example 54, (1s,3s)-3-(3-(Cyclopropylmethyl)-8-(trifluoromethyl)-[1,2,4]triazolo[4,3-a]pyridin-7-yloxy)-1-(3,5-difluorophenyl)cyclobutanecarbonitrile], the EC50 came to 2.2 nM.
As to `Fc1cc(F)cc(C2(COc3ccn4c(CC5CC5)nnc4c3C(F)(F)F)CC2)c1` [Example 55, 3-(Cyclopropylmethyl)-7-((1-(3,5-difluorophenyl)cyclopropyl)methoxy)-8-(trifluoromethyl)-[1,2,4]triazolo[4,3-a]pyridine], the EC50 is 20 nM.
As to `FC(F)(F)c1c(OCC2(c3cc(Cl)cc(Cl)c3)CC2)ccn2c(CC3CC3)nnc12` [Example 56, 3-(Cyclopropylmethyl)-7-((1-(3,5-dichlorophenyl)cyclopropyl)methoxy)-8-(trifluoromethyl)-[1,2,4]triazolo[4,3-a]pyridine], the EC50 came out at 22 nM.
Turning to `FC(F)(F)c1c(O[C@H]2C[C@H](c3ccccc3)C2)ccn2c(CC3CC3)nnc12` [Example 57, 3-(Cyclopropylmethyl)-7-((1r,3r)-3-phenylcyclobutoxy)-8-(trifluoromethyl)-[1,2,4]triazolo[4,3-a]pyridine], the EC50 was found to be 0.5 nM.
For `Clc1ccc(COc2ccn3c(CC4CC4)nnc3c2Cl)cc1` [Example 58, 8-Chloro-7-(4-chlorobenzyloxy)-3-(cyclopropylmethyl)-[1,2,4]triazolo[4,3-a]pyridine, TFA salt], the EC50 stood at 60 nM.
In the case of `CC(Oc1ccn2c(CC3CC3)nnc2c1Cl)c1ccc(F)cc1` (stereo not drawn) [Example 59, 8-Chloro-3-(cyclopropylmethyl)-7-(1-(4-fluorophenyl)ethoxy)-[1,2,4]triazolo[4,3-a]pyridine], the EC50 is 530 nM.
As for `Clc1cccc(COc2ccn3c(CC4CC4)nnc3c2Cl)c1` [Example 60, 8-Chloro-7-(3-chlorobenzyloxy)-3-(cyclopropylmethyl)-[1,2,4]triazolo[4,3-a]pyridine], the EC50 turned out to be 18 nM.
Take `COc1cccc(COc2ccn3c(CC4CC4)nnc3c2Cl)c1` [Example 61, 8-Chloro-3-(cyclopropylmethyl)-7-(3-methoxybenzyloxy)-[1,2,4]triazolo[4,3-a]pyridine]: the EC50 amounted to 40 nM.
On to `Clc1c(OCCCc2cccnc2)ccn2c(CC3CC3)nnc12` [Example 62, 8-Chloro-3-(cyclopropylmethyl)-7-(3-(pyridin-3-yl)propoxy)-[1,2,4]triazolo[4,3-a]pyridine], for which the EC50 came out at 270 nM.
Take `Clc1c(OCCOc2ccccc2)ccn2c(CC3CC3)nnc12` [Example 63, 8-Chloro-3-(cyclopropylmethyl)-7-(2-phenoxyethoxy)-[1,2,4]triazolo[4,3-a]pyridine]: the EC50 was 100 nM.
`Clc1c(OCCc2ccccc2)ccn2c(CC3CC3)nnc12` [Example 64, 8-Chloro-3-(cyclopropylmethyl)-7-phenethoxy-[1,2,4]triazolo[4,3-a]pyridine]: the EC50 worked out at 32 nM.
In the case of `COc1cc(COc2ccn3c(CC4CC4)nnc3c2Cl)ccc1F` [Example 65, 8-Chloro-3-(cyclopropylmethyl)-7-(4-fluoro-3-methoxybenzyloxy)-[1,2,4]triazolo[4,3-a]pyridine], the EC50 came out at 110 nM.
With `Clc1ccccc1COc1ccn2c(CC3CC3)nnc2c1Cl` [Example 66, 8-Chloro-7-(2-chlorobenzyloxy)-3-(cyclopropylmethyl)-[1,2,4]triazolo[4,3-a]pyridine], the EC50 was found to be 11 nM.
For `Cc1cccc(COc2ccn3c(CC4CC4)nnc3c2Cl)c1` [Example 67, 8-Chloro-3-(cyclopropylmethyl)-7-(3-methylbenzyloxy)-[1,2,4]triazolo[4,3-a]pyridine], the EC50 worked out at 55 nM.
`Fc1ccccc1COc1ccn2c(CC3CC3)nnc2c1Cl` [Example 68, 8-Chloro-3-(cyclopropylmethyl)-7-(2-fluorobenzyloxy)-[1,2,4]triazolo[4,3-a]pyridine]: the EC50 was found to be 68 nM.
As to `Clc1ccc(COc2ccn3c(CC4CC4)nnc3c2Cl)cc1Cl` [Example 69, 8-Chloro-3-(cyclopropylmethyl)-7-(3,4-dichlorobenzyloxy)-[1,2,4]triazolo[4,3-a]pyridine], the EC50 amounted to 32 nM.
`COc1ccc(COc2ccn3c(CC4CC4)nnc3c2Cl)cc1` [Example 70, 8-Chloro-3-(cyclopropylmethyl)-7-(4-methoxybenzyloxy)-[1,2,4]triazolo[4,3-a]pyridine]: the EC50 was determined as 140 nM.
Turning to `Fc1cccc(F)c1COc1ccn2c(CC3CC3)nnc2c1Cl` [Example 71, 8-Chloro-3-(cyclopropylmethyl)-7-(2,6-difluorobenzyloxy)-[1,2,4]triazolo[4,3-a]pyridine], the EC50 was 11 nM.
As to `COc1cccc(F)c1COc1ccn2c(CC3CC3)nnc2c1Cl` [Example 72, 8-Chloro-3-(cyclopropylmethyl)-7-(2-fluoro-6-methoxybenzyloxy)-[1,2,4]triazolo[4,3-a]pyridine], the EC50 was 42 nM.
Take `FC(F)(F)Oc1ccc(Cl)cc1COc1ccn2c(CC3CC3)nnc2c1Cl` [Example 73, 8-Chloro-7-(5-chloro-2-(trifluoromethoxy)benzyloxy)-3-(cyclopropylmethyl)-[1,2,4]triazolo[4,3-a]pyridine]: the EC50 stood at 22 nM.
Turning to `COc1ccc(F)cc1COc1ccn2c(CC3CC3)nnc2c1Cl` [Example 74, 8-Chloro-3-(cyclopropylmethyl)-7-(5-fluoro-2-methoxybenzyloxy)-[1,2,4]triazolo[4,3-a]pyridine], the EC50 was 21 nM.
Next, `Clc1c(OCc2cccc(OC3CC3)c2)ccn2c(CC3CC3)nnc12` [Example 75, 8-Chloro-7-(3-cyclopropoxybenzyloxy)-3-(cyclopropylmethyl)-[1,2,4]triazolo[4,3-a]pyridine]: 29 nM; `Fc1cc(F)cc(COc2ccn3c(CC4CC4)nnc3c2Cl)c1` [Example 76, 8-Chloro-3-(cyclopropylmethyl)-7-(3,5-difluorobenzyloxy)-[1,2,4]triazolo[4,3-a]pyridine]: 4.1 nM.
Then `Fc1cccc(Cl)c1CCOc1ccn2c(CC3CC3)nnc2c1C(F)(F)F` [Example 80, 7-(2-Chloro-6-fluorophenethoxy)-3-(cyclopropylmethyl)-8-(trifluoromethyl)-[1,2,4]triazolo[4,3-a]pyridine], with 0.4 nM; and `Fc1cccc(F)c1CCOc1ccn2c(CC3CC3)nnc2c1C(F)(F)F` [Example 81, 3-(Cyclopropylmethyl)-7-(2,6-difluorophenethoxy)-8-(trifluoromethyl)-[1,2,4]triazolo[4,3-a]pyridine], with 1.5 nM; and `Clc1cc(COc2ccn3c(CC4CC4)nnc3c2Cl)nc(Cl)n1` [Example 82, 8-Chloro-3-(cyclopropylmethyl)-7-((2,6-dichloropyrimidin-4-yl)methoxy)-[1,2,4]triazolo[4,3-a]pyridine], with 20 nM.
Turning to `FC(F)(F)c1c(OCC(F)(F)c2ccccc2)ccn2c(CC3CC3)nnc12` [Example 83, 3-(Cyclopropylmethyl)-7-(2,2-difluoro-2-phenylethoxy)-8-(trifluoromethyl)-[1,2,4]triazolo[4,3-a]pyridine], the EC50 was found to be 6.1 nM.
For the compound `COC1(c2ccc(F)cc2)CCC(Oc2ccn3c([C@H]4C[C@@H]4F)nnc3c2C(F)(F)F)CC1` (stereo partly drawn) [Example 90, 3-((1R,2S)-2-Fluorocyclopropyl)-7-((1s,4s)-4-(4-fluorophenyl)-4-methoxycyclohexyloxy)-8-(trifluoromethyl)-[1,2,4]triazolo[4,3-a]pyridine], the EC50 was 19 nM.
With `COC1(c2ccc(F)cc2)CCC(Oc2ccn3c([C@@H]4C[C@H]4F)nnc3c2C(F)(F)F)CC1` (stereo partly drawn) [Example 91, 3-((1S,2R)-2-Fluorocyclopropyl)-7-((1s,4s)-4-(4-fluorophenyl)-4-methoxycyclohexyloxy)-8-(trifluoromethyl)-[1,2,4]triazolo[4,3-a]pyridine], the EC50 turned out to be 83 nM.
Next, `CO[C@]1(c2ccc(F)cc2)CC[C@H](Oc2ccn3c(C4CC4)nnc3c2C(F)(F)F)CC1` [Example 92, 3-Cyclopropyl-7-((1s,4s)-4-(4-fluorophenyl)-4-methoxycyclohexyloxy)-8-(trifluoromethyl)-[1,2,4]triazolo[4,3-a]pyridine]: 35 nM.
Take `CO[C@]1(c2ccc(F)cc2)CC[C@H](Oc2ccn3c(C4CC(F)(F)C4)nnc3c2C(F)(F)F)CC1` [Example 93, 3-(3,3-Difluorocyclobutyl)-7-((1s,4s)-4-(4-fluorophenyl)-4-methoxycyclohexyloxy)-8-(trifluoromethyl)-[1,2,4]triazolo[4,3-a]pyridine]: the EC50 worked out at 20 nM.
